Experiments:
[1] = Acute toxicity in mice (intraperitoneal, DL50); format: in vivo; conditions: mouse, in vivo, ip, observed for one week
Procedure: (§1) The acute toxicity was determined on groups of 5 mice weighing about 18 to 22 g and the test products were intraperitoneally administered in suspension in an aqueous carboxymethylcellulose.

[2] = tested on: levels of triglycerides, cholesterol and total lipids; assay: Hypolipemiant activity: plasma lipid levels in rats on a saccharose and cholesterol-rich regime, 10 days treatment; format: in vivo, male rats of the Sprague Dawley S.P.F. strain; conditions: esophague tube, vs untreated controls
Procedure: This test was effected on groups of 8 male rats of the Sprague Dawley S.P.F. strain weighing about 200 g and the animals received a regime containing 50% of saccharose and which was rich in cholesterol (1%). The rats were treated over 10 days with the test products which were administered through an esophague tube as a suspension in water containing carboxymethylcellulose. The animals were killed 16 hours after the last administration of the test product by an abdominal puncture and from the blood sample with sodium heparinate, the levels of triglycerides, cholesterol and total lipids were determined by the following methods.
The triglyceride level was determined by the semi-automatic technique of Kessler et al [Automation in Analytical Chemistry, 1965, p. 341] modified by Claude et al [Ann. Biol. Clin., Vol. 26 3-4 (1968), p. 451]. The cholesterol levels were determined by the technique of Levine [Symposium Technicon, Vol. I. (1967), p. 25] adapted to auto-analyzer system I. The nephelometric level of total lipids was determined semi-automatically by the method of Girard et al [Symposium Technicon, 1970]. The variations expressed in percentages of the level of triglycerides, cholesterol and total lipids after administration of the various dosage of the test products in the treated animals as compared to the untreated controls and the results are reported in Table I.

[3] = tested on: mice; assay: Acute toxicity in mice (intraperitoneal, DL50); format: in vivo; conditions: observed for one week, 10080 min
Procedure: as §1

SMILES	LD50 at 168 h [1]	% Variation of levels, Cholesterol ([2]; 5 mg/kg/day)	% Variation of levels, Total Lipids ([2]; 5 mg/kg/day)	% Variation of levels, Triglycerides ([2]; 5 mg/kg/day)	DL50 [3]	% Variation of levels, Cholesterol ([2]; 2 mg/kg/day)	% Variation of levels, Total Lipids ([2]; 2 mg/kg/day)	% Variation of levels, Triglycerides ([2]; 2 mg/kg/day)	% Variation of levels, Cholesterol ([2]; 1 mg/kg/day)	% Variation of levels, Total Lipids ([2]; 1 mg/kg/day)	% Variation of levels, Triglycerides ([2]; 1 mg/kg/day)
CC1(c2ccccc2)OC(C(=O)O)Oc2ccc(Cl)cc21 (racemic) [Example 1, 6-chloro-4-methyl-4-phenyl-[4H]-1,3-benzodioxin-2-carboxylic acid]	130 mg/kg	-22%	-26%	-11%	–	–	–	–	–	–	–
CC1(c2ccccc2)OC(C(=O)O)Oc2ccc(Cl)cc21 (racemic) [Example 3, 6-chloro-4-methyl-4-phenyl-[4H]-1,3-benzodioxin-2-carboxylic acid]	–	–	–	–	150 mg/kg	-36%	-38%	-12%	–	–	–
CCOC(=O)C1Oc2ccc(Cl)cc2C(C)(c2ccccc2)O1 (single isomer, unassigned) [16 Isomer A]	~800 mg/kg	–	–	–	–	-17%	-25%	-32%	–	–	–
CC1(c2ccccc2)OC(C(=O)O)Oc2ccc(Cl)cc21 (single isomer, unassigned) [17 Isomer A]	~200 mg/kg	–	–	–	–	-43%	-47%	-57%	–	–	–
CC1(c2ccccc2)OC(C(=O)O)Oc2ccc(Cl)cc21 (single isomer, unassigned) [18 Isomer A 1 form]	~250 mg/kg	–	–	–	–	-47%	-53%	-53%	–	–	–
COC(=O)C1Oc2ccc(Cl)cc2C(C)(c2cccc(Cl)c2)O1 (single isomer, unassigned) [20 Isomer A]	≤ 1000 mg/kg	–	–	–	–	–	–	–	-36%	-32%	-13%
CC1(c2cccc(Cl)c2)OC(C(=O)O)Oc2ccc(Cl)cc21 (single isomer, unassigned) [21 Isomer A]	~150 mg/kg	–	–	–	–	–	–	–	-11%	-25%	-62%
CN(C)CCOC(=O)C1Oc2ccc(Cl)cc2C(C)(c2ccccc2)O1 (single isomer, unassigned) [41 Isomer A]	~200 mg/kg	-40%	-49%	-43%	–	–	–	–	–	–	–
